The values that follow come from PMC10404671, “Deciphering the biosynthesis of a novel lipid in Mycobacterium tuberculosis expands the known roles of the nitroreductase superfamily” (The Journal of Biological Chemistry, 2023).

Test [1] concerns the target T1, TyzB (Mycobacterium tuberculosis, UniProt P95234).
T1 construct: gene moeW

The target in test [2] is T2, TyzC (Mycobacterium tuberculosis, UniProt P95233).
T2 construct: gene Rv2337c

The target in test [3] is T3, TyzA (Mycobacterium tuberculosis, UniProt P95232).
T3 construct: gene Rv2336
T3 sequence (P95232 entry or part of it): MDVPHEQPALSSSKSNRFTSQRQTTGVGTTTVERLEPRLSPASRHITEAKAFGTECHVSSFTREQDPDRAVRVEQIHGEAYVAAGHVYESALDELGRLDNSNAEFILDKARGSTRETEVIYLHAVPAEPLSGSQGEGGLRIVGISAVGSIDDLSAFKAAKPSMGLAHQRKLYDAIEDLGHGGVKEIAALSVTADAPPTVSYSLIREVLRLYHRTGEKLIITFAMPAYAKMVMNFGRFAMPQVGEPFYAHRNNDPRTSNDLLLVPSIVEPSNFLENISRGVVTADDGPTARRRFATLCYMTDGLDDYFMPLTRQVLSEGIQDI

T1 sequence (P95234 entry or part of it): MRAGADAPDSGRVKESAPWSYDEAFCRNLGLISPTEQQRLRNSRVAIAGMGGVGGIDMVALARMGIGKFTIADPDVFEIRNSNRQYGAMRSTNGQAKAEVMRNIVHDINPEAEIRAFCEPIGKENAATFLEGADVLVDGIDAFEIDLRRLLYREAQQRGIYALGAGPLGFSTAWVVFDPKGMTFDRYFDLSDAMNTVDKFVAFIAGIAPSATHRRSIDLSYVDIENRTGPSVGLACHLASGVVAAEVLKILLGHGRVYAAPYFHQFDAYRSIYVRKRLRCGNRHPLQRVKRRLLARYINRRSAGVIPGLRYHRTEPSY
T2 sequence (P95233 entry or part of it): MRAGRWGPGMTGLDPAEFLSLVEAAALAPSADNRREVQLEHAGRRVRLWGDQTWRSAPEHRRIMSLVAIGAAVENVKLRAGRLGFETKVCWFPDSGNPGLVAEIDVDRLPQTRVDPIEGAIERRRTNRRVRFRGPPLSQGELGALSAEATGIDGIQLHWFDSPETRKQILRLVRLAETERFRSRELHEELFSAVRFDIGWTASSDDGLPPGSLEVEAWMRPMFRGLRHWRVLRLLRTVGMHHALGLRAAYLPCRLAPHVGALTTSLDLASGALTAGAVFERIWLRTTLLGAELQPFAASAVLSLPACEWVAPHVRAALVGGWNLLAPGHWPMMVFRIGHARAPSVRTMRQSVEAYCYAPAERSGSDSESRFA

As to `Nc1ncnc2c1ncn2[C@@H]1O[C@H](COP(=O)(O)OP(=O)(O)OP(=O)(O)O)[C@@H](O)[C@H]1O` [ATP], the “LC-QTOF endpoint assay, purified TyzA plus RHA1 pTip-TyzBC lysate” value in test [1] is “performed ATP-dependent cyclization and O2-dependent desaturation of C12:0-L-Tyr, respectively”. On to `CCCCCCCCCCCC(=O)N[C@@H](Cc1ccc(O)cc1)C(=O)O` [C12:0-L-Tyr], for which, in test [2], the “LC-QTOF endpoint assay, purified TyzA plus RHA1 pTip-TyzBC lysate” value is “performed ATP-dependent cyclization and O2-dependent desaturation of C12:0-L-Tyr, respectively”.

For `CCCCCCCCCCCC(=O)SCCNC(=O)CCNC(=O)[C@H](O)C(C)(C)COP(=O)(O)OP(=O)(O)OC[C@H]1O[C@@H](n2cnc3c(N)ncnc32)[C@H](O)[C@@H]1OP(=O)(O)O` [C12:0-CoA], the KiS in test [3] is 450 ± 90 µM.
